From patent publication US11752125B2, “Anti-neuroinflammatory and protective compounds in Achillea fragrantissima” (THE STATE OF ISRAEL MINISTRY OF AGRICULTURE & RURAL …, priority 2013, dated 2023)

Test system: GDNF
Experiment: GDNF transcript levels in primary astrocytes (real-time PCR)
Type: cell-based, rat
Conditions: 24 h treatment
Source text: 1. Produce a primary culture of rat brain glial cells according to the method described in “Protective effects of the essential oil of salvia fruticosa and its constituents on astrocytic susceptibility to hydrogen peroxide-induced cell death”. 2009. A. Elmann, S. Mordechay, M. Rindner, O. Larkov, M. Elkabetz, U. Ravid. Journal of agricultural and food chemistry. 57(15):6636-41; 2. Separate astrocytes from other cell types in the culture according to the method described in “Protective effects of the essential oil of salvia fruticosa and its constituents on astrocytic susceptibility to hydrogen peroxide-induced cell death”. 2009. A. Elmann, S. Mordechay, M. Rindner, O. Larkov, M. Elkabetz, U. Ravid. Journal of agricultural and food chemistry. 57(15):6636-41; 3. Plate astrocytes in 6-wells PDL-coated plastic plates at a density of 2×10^6 cells/well, in DMEM/F12 containing 5% FBS, 2 millimolar glutamine, 100 U/ml penicillin, and 100 micrograms/ml streptomycin. 4. Incubate the culture for 24 hr (37° C., 5% CO2); 5. Aspirate medium and add fresh medium to the cells. 6. […]
Astrocytes were treated with achillolide A for 24 h. […] GDNF transcripts were measured using quantitative real time PCR. The results of three technical replicates were normalized to […] and are expressed as relative quantities of GDNF transcripts. […]

## C=C1CCC2=C(CO)C(=O)O[C@H]2/C=C(\C)[C@H](OC(C)=O)CC1=O [achillolide A]
  effect on GDNF transcript levels: increases
